Data taken from EP1094724B1, “USE OF A PHENOL OXIDISING ENZYME IN THE TREATMENT OF TOBACCO” (priority 1998, dated 2000).

Target: T1, Trametes villosa laccase (TvL) (Trametes villosa, UniProt Q99044)
T1 construct: purchased Novo Nordisk A/S
T1 sequence (Q99044 22-520): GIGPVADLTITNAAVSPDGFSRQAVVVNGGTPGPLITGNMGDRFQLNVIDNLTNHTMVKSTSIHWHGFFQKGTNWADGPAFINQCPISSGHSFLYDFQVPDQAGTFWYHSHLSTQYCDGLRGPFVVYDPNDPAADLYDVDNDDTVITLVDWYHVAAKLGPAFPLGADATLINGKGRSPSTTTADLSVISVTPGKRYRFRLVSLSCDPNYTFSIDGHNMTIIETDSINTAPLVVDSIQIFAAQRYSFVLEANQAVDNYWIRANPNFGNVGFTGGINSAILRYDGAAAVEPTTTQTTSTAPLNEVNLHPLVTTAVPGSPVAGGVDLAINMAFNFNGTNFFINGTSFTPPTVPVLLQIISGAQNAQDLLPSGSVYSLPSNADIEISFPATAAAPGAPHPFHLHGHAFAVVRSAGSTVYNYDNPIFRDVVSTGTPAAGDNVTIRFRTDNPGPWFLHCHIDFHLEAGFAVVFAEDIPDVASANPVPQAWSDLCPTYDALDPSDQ
Assay: Laccase TvL treatment of tobacco extract, HPLC analysis of phenolic compounds (peak area)
Assay type: biochemical
Settings: for % Remaining (peak area) after various treatment times: intensive, submerse aeration; for % Remaining (peak area) after 75 minutes / % Remaining (peak area) after 240 minutes: 1.6 µg/ml TvL, ambient temperature (approximately 20°C); for % Remaining (peak area) after 75 minutes / % Remaining (peak area) after 240 minutes / reduction in the area of the peaks (HPLC) following enzyme treatment: surface aeration; for reduction in the area of the peaks (HPLC) following enzyme treatment: tobacco extract, approximately 1.6 µg/ml TvL, pH 5.5 and 55°C
Experimental: The content of phenolic compounds is analysed by HPLC according to the procedure described below: • Liquid chromatographic system: E.g. Shimadzu SCL-6B System Controller, and two LC-6A Liquid Chromatograph (pumps) or Waters model 600 E • Injector: Shimadzu SIL 6B Autoinjector or Waters 715 Ultra Wisp. UV detector: Shimadzu SPD-6A Photodiode Array UV-VIS detector or Waters Model 481 • Software: CLASS LC10 / CLASS-MXA or Maxima 820 • Column: Supelcosil™ LC-18 25 cm x 4.6 mm (Supelco, #5-8298) or µ Bondapack C198 stainless steel column, 30 cm x 4 mm i.d., 10 µm particle size. • Guard column: none or Guard-Pak from Waters packed with the same material. • Temperature: Ambient • Mobile phase flow: 1.3 ml/min • Injection volume: 20µl • Wavelength: 350 nm • Eluent: Binary gradient (linear) mixture of A: KH2PO4 (28.4 g in 2000 ml de-mineralised water) and B: methanol (please see table 1 and figure 1). The eluent is filtered through a 0.45 µm filter and degassed before use.
Prior to HPLC analysis, the samples were filtered through a 0.45 µm filter or smaller, e.g. a sterile Sartorius Minisart 0.45 µm filter (#16555) or a Millipore Millex-GS 0.22 µm (#SBGS 0 25 SB) to remove the haze/precipitate normally formed during enzyme treatment. Normally, no dilution of the extract/sample was made before HPLC analysis.
For qualitative and semi-quantitative measurements, each of the standards was dissolved in 96% ethanol, and then mixed in a ratio and at a concentration which was within the range in the tobacco extract. For semi-quantification of the phenolic compounds in the tobacco extract, and as a measure of development in concentration of the various compounds contained in the extract, decrease in peak area relative to the peak area before addition of enzyme was used. As a measure of overall efficiency of the process, degree of reduction in total peak area of all peaks (not only the major ones) in the HPLC chromatogram with retention time Rt>3 min was used (named: "All peaks").
Unless otherwise indicated, the tobacco was extracted at a laboratory scale with water according to the following procedure: 1000 ml demineralised water is heated to 45°C. 30 g tobacco (approx. 25 g d.m.) is added and the mixture stirred by a magnetic bar and occasionally with a stick. After 15 minutes the tobacco residue is separated from the tobacco extract by vacuum filtration (Whatman glass micro fibre GF/F 11 cm). The filtered extract is then vacuum filtered at least once more or until it is completely clear. Yield was around 900 ml tobacco extract. […] No buffer was thus included in any of the trials. D.m. content of the extract was approximately 2.1%.
Tobacco extract (typically 50-100 ml) was poured into a glass beaker and a magnetic bar was added. No pH adjustments were made, and no buffer was added. The tobacco extract was heated to and controlled at 55°C during the entire enzyme treatment by means of a heating plate and a thermostat. Intensive submerse aeration was applied by blowing atmospheric air into the extract by means of a metal sinter (metal suction filter normally used for HPLC). The enzyme in question (TvL or PpL) was added to the desired concentration. Shortly after addition of laccase, the colour of the tobacco extract turned dark brown to black, and with time the liquor became turbid and a precipitate formed. The liquor was sampled with intervals for HPLC analysis.
Enzyme treatment: Surface aeration was used. TvL enzyme was added to the tobacco extract to a concentration of approximately 1.6 µg/ml. […] HPLC chromatograms of the tobacco extract before, during, and after enzyme treatment as well as chromatograms of the mixture of HPLC standards are shown in figure 6, 7, ,8, and 9.
Enzyme treatment: pH of the extract was adjusted with H2SO4 or NaOH to pH 4, pH 5, pH 6, or pH 7. The extract was kept at ambient temperature (approximately 20°C) during the entire enzyme treatment. Surface aeration was used. […]

[1] = 40 Min, approximately 1.6 µg/ml TvL at 55°C and pH 5.4
[2] = 40 Min, approximately 7.8µg/ml TvL at 55°C and pH 5.4
[3] = 80 Min, approximately 1.6 µg/ml TvL at 55°C and pH 5.4
[4] = 120 Min, approximately 1.6 µg/ml TvL at 55°C and pH 5.4

| Compound | % Remaining (peak area) after various treatment times [1] | % Remaining (peak area) after various treatment times [2] | % Remaining (peak area) after various treatment times [3] | % Remaining (peak area) after various treatment times [4] | % Remaining (peak area) after 75 minutes (pH 4) | % Remaining (peak area) after 240 minutes (pH 4) | % Remaining (peak area) after 75 minutes (pH 5) | % Remaining (peak area) after 240 minutes (pH 5) | % Remaining (peak area) after 75 minutes (pH 6) | % Remaining (peak area) after 240 minutes (pH 6) | % Remaining (peak area) after 75 minutes (pH 7) | % Remaining (peak area) after 240 minutes (pH 7) | reduction in the area of the peaks (HPLC) following enzyme treatment |
| --- | --- | --- | --- | --- | --- | --- | --- | --- | --- | --- | --- | --- | --- |
| COc1cc2ccc(=O)oc2cc1O [S, 7-Hydroxy-6-methoxy-2H-1-benzopyran-2-one] | 82% | 3% | 30% | 12% | 89% | 58% | 94% | 12% | 96% | 6% | 100% | 112% | significant reduction |
| O=C(C=Cc1ccc(O)c(O)c1)OC1CC(O)(C(=O)O)CC(O)C1O (centres unmarked) [CA, 3-[[3-(3,4-Dihydroxyphenyl)-1-oxo-2-propenyl]oxy]1,4,5-trihydroxycyclohexanecarboxylic acid] | 23% | 0% | 0% | 0% | 5% | 0% | 11% | 0% | 22% | 0% | 94% | 85% | significant reduction |
